From PubChem BioAssay (NCI)
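Cells were grown in 96-well plates and exposed to each compound for 48 hours at five concentrations; endpoints were interpolated linearly between bracketing concentrations, or set to the highest concentration if not reached. TGI: concentration producing complete growth inhibition.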

What was measured:
Experiment in all cases: DTP human tumour cell line panel, 48 h
CAKI-1 renal = test system: CAKI-1 renal
COLO 205 colon = test system: COLO 205 colon
HS 578T breast = test system: HS 578T breast
T-47D breast = test system: T-47D breast
MCF7 breast = test system: MCF7 breast
786-0 renal = test system: 786-0 renal
NCI-H460 lung = test system: NCI-H460 lung
A549 NSCLC = test system: A549 NSCLC
NCI-H226 lung = test system: NCI-H226 lung
RXF 393 renal = test system: RXF 393 renal
MDA-MB-435 = test system: MDA-MB-435
K-562 leukemia = test system: K-562 leukemia
SR leukemia = test system: SR leukemia
UACC-257 melanoma = test system: UACC-257 melanoma
CCRF-CEM leukemia = test system: CCRF-CEM leukemia
HCT-15 colon = test system: HCT-15 colon
SNB-75 CNS = test system: SNB-75 CNS
TK-10 renal = test system: TK-10 renal
UO-31 renal = test system: UO-31 renal

| SMILES | TGI (CAKI-1 renal) [µM] | TGI (COLO 205 colon) [µM] | TGI (HS 578T breast) [µM] | TGI (T-47D breast) [µM] | TGI (MCF7 breast) [µM] | TGI (786-0 renal) [µM] | TGI (NCI-H460 lung) [µM] | TGI (A549 NSCLC) [µM] | TGI (NCI-H226 lung) [µM] | TGI (RXF 393 renal) [µM] | TGI (MDA-MB-435) [µM] | TGI (K-562 leukemia) [µM] | TGI (SR leukemia) [µM] | TGI (UACC-257 melanoma) [µM] | TGI (CCRF-CEM leukemia) [µM] | TGI (HCT-15 colon) [µM] | TGI (SNB-75 CNS) [µM] | TGI (TK-10 renal) [µM] | TGI (UO-31 renal) [µM] |
| --- | --- | --- | --- | --- | --- | --- | --- | --- | --- | --- | --- | --- | --- | --- | --- | --- | --- | --- | --- |
| NS(=O)(=O)c1nn2c(Br)c(-c3ccccc3)nc2s1 | 9.72 | 18.4 | 30.7 | 12.2 | 16 | 9.34 | 19.3 | 21.6 | 4.6 | 9.48 | 16.3 | 21.2 | > 33.8 | 15.5 | 11 | 11.6 | 19.5 | 17.7 | 15.5 |
| CC(C)(C)OC(=O)NCC(O)CNC(=O)OC(C)(C)C | > 100 | > 100 | > 100 | > 100 | > 100 | > 100 | > 100 | > 100 | > 100 | > 100 | > 100 | > 100 | > 100 | > 100 | > 100 | > 100 |  | > 100 | > 100 |
| C[C@@H]1C[C@H]2[C@@H]3CCC4=CC(=O)C=C[C@]4(C)[C@@]3(Cl)[C@@H](Cl)C[C@]2(C)[C@@]1(O)C(=O)COP(=O)(O)O | > 100 | > 100 | > 100 | > 100 | > 100 | > 100 |  | > 100 | > 100 | > 100 | > 100 | > 100 | > 100 | > 100 |  | > 100 | > 100 | > 100 | > 100 |
| COc1ccc2nc3ccc(OC)cc3c(S(=O)CCCl)c2c1 (configuration not stated) | 6.9 | 3.13 | 6.02 | 5.62 | > 21.4 | 3.34 | > 63.7 | 48 | 33.9 | 16.2 | 17.1 | > 23.6 | > 22.7 | 5.38 | > 23.8 | > 20.6 | 33.1 | 8.26 |  |
| Nc1nc(Cl)c(N)c(NC23CC4CC(CC(C4)C2)C3)n1 | 3.84 | 3.13 | > 100 | 3.61 | 3.78 | 3.03 | 17.7 | 6.16 | 4.22 | 3.24 | 3.41 | 6.87 | > 22.2 | 7.16 | 5 | 13.3 | 4.91 | 5.54 | 3.55 |
| O/N=C1/COC(C(F)(F)F)(C(F)(F)F)C1 | > 100 | > 100 | > 100 | > 100 | > 100 | > 100 | > 100 | > 100 | > 100 | > 100 | > 100 |  | > 100 | > 100 |  | > 100 | > 100 | > 100 | > 100 |
| COc1cc(C2c3cc4c(cc3OC(N3CCCC3)C2C)OCO4)cc(OC)c1O (configuration not stated) | > 95.1 | 63 | 37.4 | > 100 | > 100 | 59.5 | > 100 | > 100 | 80.9 | > 42.7 | 15.2 | > 95.7 | > 100 | > 100 | > 100 | > 100 | 24.5 | 58.6 | > 100 |
| C[N+](C)([O-])CCC=C1c2ccccc2CCc2ccccc21 | 79.4 | 43.6 | 64.9 | 77.7 | 48.2 | 19.2 | > 100 | > 100 | 67.5 | 39.8 | 38.1 | 52 | 39.3 | > 100 | 40.7 | 95 | 75.4 | > 100 |  |
| CCOC(=O)C1(Cc2ccc3c(c2)CCC3)Cc2cc3c(cc2C1)CCC3 | > 100 | > 100 | > 100 | 50.7 | 40.4 | > 100 | 93.5 | > 100 | 81.9 |  | > 100 | > 100 | > 100 | 86.2 | 35 | > 100 | > 100 | > 100 | > 100 |
| CC(=O)OCc1cc(CCC(=O)NCCNc2c3ccccc3nc3ccccc23)cc(COC(C)=O)c1O[Si](C)(C)C(C)(C)C |  | 15.9 | 13.9 | 5.73 | 4.57 | 31.3 | 21.6 | 24.4 | 4.72 | 9.37 | 8.06 | 6.49 | 4.91 | 14.6 | 20.5 | 33.3 |  | 23.2 | 31.1 |
| COc1ccc(CC2c3cc(Oc4cc(CC5c6cc(OC)c(OC)cc6CCN5C)ccc4O)c(OC)cc3CCN2C)cc1 (configuration not stated) | 9.99 | 14.7 | 19.3 | 12.8 | 12.2 | 9.33 | 14.1 | 13.4 | 18.6 | 12 | 9.88 | 5.28 | 4.6 | 15 | 1.57 | 4.6 | 15.3 | 11 | 11.2 |
| COc1nc(C(=O)NNC(=O)c2nc(OC)c3ccccc3c2-c2ccccc2)c(-c2ccccc2)c2ccccc12 | > 100 | > 100 | > 100 | > 100 | > 100 | > 100 |  | > 100 | > 100 | > 100 | > 100 | > 100 | > 100 | > 100 | > 100 | > 100 | > 100 | > 100 | > 100 |
